Data published in US4820694A, “Modifications of 3-O-demethylmycinose in macrocin and lactenocin” (priority 1986, dated 1989).
Values after ≈ are worked out from the molar mass of the structure shown. Where two headings read alike, the source gives them in different places.

Tests used:
[1] = test system: Streptococcus pyogenes C203; assay: protection of mice experimentally infected with S. pyogenes C203; type: in vivo
Method: The formula 1 compounds have shown in vivo antimicrobial activity against experimentally-induced infections in laboratory animals. When two doses of test compound were administered to mice experimentally infected with S. pyrogenes C203, the activity observed was measured as an ED50 value [effective dose in mg/kg to protect 50% of the test animals: see Warren Wick, et al., J. Bacteriol. 81, 233-235 (1961)].
^a mg/kg × 2; doses given 1 and 4 hours postinfection

[2] = test system: Streptococcus pneumoniae Park I; assay: microbe, parasite or virus in culture; type: cell-based; settings: Streptococcus pneumoniae
Method: (§1) The MIC's in Table III were determined by standard agar-dilution assays. The MIC's in Table IV were obtained using conventional brothdilution microtiter tests.

[3] = test system: Staphylococcus aureus S13E; assay: microbe, parasite or virus in culture; type: cell-based; settings: Staphylococcus aureus, S13E
Method: as §1

[4] = test system: Mycoplasma gallisepticum 29C; assay: broth-dilution microtiter MIC test; type: cell-based; settings: Mycoplasmoides gallisepticum, 29C
Method: as §1

[5] = test system: Pasteurella multocida 60A; assay: broth-dilution microtiter MIC test; type: cell-based; settings: Pasteurella multocida, 60A
Method: as §1

Mycoplasma synoviae 40A = assay: broth-dilution microtiter MIC test; type: cell-based; settings: Mycoplasmopsis synoviae, 40A
Method: as §1

[6] = test system: Staphylococcus aureus 19C; assay: broth-dilution microtiter MIC test; type: cell-based; settings: Staphylococcus aureus, 19C
Method: as §1

[7] = test system: Pasteurella multocida 22A; assay: broth-dilution microtiter MIC test; type: cell-based; settings: Pasteurella multocida, 22A
Method: as §1

[8] = test system: Mycoplasma gallisepticum 15E; assay: broth-dilution microtiter MIC test; type: cell-based; settings: Mycoplasmoides gallisepticum, 15E
Method: as §1

[9] = test system: Pasteurella multocida 68C; assay: broth-dilution microtiter MIC test; type: cell-based; settings: Pasteurella multocida, 68C
Method: as §1

[10] = test system: Mycoplasma gallisepticum 36H; assay: broth-dilution microtiter MIC test; type: cell-based; settings: Mycoplasmoides gallisepticum, 36H
Method: as §1

[11] = test system: Pasteurella hemolytica 22C; assay: broth-dilution microtiter MIC test; type: cell-based; settings: Pasteurella, 22C
Method: as §1

[12] = test system: Pasteurella multocida 40G; assay: broth-dilution microtiter MIC test; type: cell-based; settings: Pasteurella multocida, 40G
Method: as §1

[13] = test system: Pasteurella hemolytica 41D; assay: broth-dilution microtiter MIC test; type: cell-based; settings: Pasteurella, 41D
Method: as §1

[14] = test system: Pasteurella hemolytica 23C; assay: broth-dilution microtiter MIC test; type: cell-based; settings: Pasteurella, 23C
Method: as §1

[15] = test system: Bordetella bronchiseptica; assay: broth-dilution microtiter MIC test; type: cell-based; settings: Bordetella bronchiseptica
Method: as §1

Streptococcus sp. 19F = assay: broth-dilution microtiter MIC test; type: cell-based; settings: Streptococcus, SP.19F
Method: as §1

[16] = test system: Pasteurella multocida 17E; assay: broth-dilution microtiter MIC test; type: cell-based; settings: Pasteurella multocida, 17E
Method: as §1

Mycoplasma hyorhinis 29E = assay: broth-dilution microtiter MIC test; type: cell-based; settings: Mycoplasma, 29E
Method: as §1

[17] = test system: Streptococcus pyogenes C203; assay: standard agar-dilution MIC assay; type: cell-based; settings: Streptococcus pyogenes, C203
Method: as §1

[18] = test system: Streptococcus Group D X66; assay: standard agar-dilution MIC assay; type: cell-based; settings: read-out: MIC
Method: as §1

[19] = test system: Staphylococcus aureus X1.1; assay: standard agar-dilution MIC assay; type: cell-based; settings: Staphylococcus aureus, X1.1
Method: as §1

[20] = test system: Haemophilus influenzae 76; assay: standard agar-dilution MIC assay; type: cell-based; settings: Haemophilus influenzae, 76
Method: as §1

[21] = test system: Staphylococcus aureus X400; assay: standard agar-dilution MIC assay; type: cell-based; settings: Staphylococcus aureus, X400
Method: as §1

[22] = test system: Streptococcus Group D 9960; assay: standard agar-dilution MIC assay; type: cell-based; settings: GROUPD9960, read-out: MIC
Method: as §1

[23] = test system: Staphylococcus aureus V41; assay: standard agar-dilution MIC assay; type: cell-based; settings: Staphylococcus aureus, V41
Method: as §1

[24] = test system: Haemophilus influenzae C.L.; assay: standard agar-dilution MIC assay; type: cell-based; settings: Haemophilus influenzae
Method: as §1

[25] = test system: Klebsiella pneumoniae X68; assay: standard agar-dilution MIC assay; type: cell-based; settings: Klebsiella pneumoniae, X68
Method: as §1

[26] = test system: Pseudomonas aeruginosa X239; assay: standard agar-dilution MIC assay; type: cell-based; settings: Pseudomonas aeruginosa, X239
Method: as §1

[27] = test system: Staphylococcus epidermidis EPI1; assay: standard agar-dilution MIC assay; type: cell-based; settings: Staphylococcus epidermidis, EPI1
Method: as §1

Escherichia coli EC14 = assay: standard agar-dilution MIC assay; type: cell-based
Method: as §1

[28] = broth-dilution microtiter, read-out: MIC

Row | Structure (SMILES) | MIC [2] [µg/mL] | MIC [3] [µg/mL] | MIC [4] [µg/mL] | MIC [5] [µg/mL] | MIC (Mycoplasma synoviae 40A) [µg/mL] | MIC [6] [µg/mL] | MIC [7] [µg/mL] | MIC [8] [µg/mL] | MIC [9] [µg/mL] | MIC [10] [µg/mL] | MIC [11] [µg/mL] | MIC [12] [µg/mL] | MIC [13] [µg/mL] | MIC [14] [µg/mL] | MIC (Streptococcus sp. 19F) [µg/mL] | MIC [16] [µg/mL] | MIC (Mycoplasma hyorhinis 29E) [µg/mL] | MIC [17] [µg/mL] | MIC [18] [µg/mL] | MIC [19] [µg/mL] | further results
1 | CCC1OC(=O)CC(O)C(C)C(OC2OC(C)C(O)C(N(C)C)C2O)C(CC=O)CC(C)C(=O)C=CC(C)=CC1COC1OC(C)C(OC(=O)CC(C)C)C(O)C1OC (stereo not shown) [Compound 26, 4"-O-Isovaleryl-lactenocin] | 0.25 (≈ 0.297 µM) | 1 (≈ 1.19 µM) | 1.56 (≈ 1.85 µM) | 25 (≈ 29.7 µM) | 3.12 (≈ 3.71 µM) | 3.12 (≈ 3.71 µM) | 25 (≈ 29.7 µM) | 50 (≈ 59.4 µM) | 12.5 (≈ 14.8 µM) | 50 (≈ 59.4 µM) | 50 (≈ 59.4 µM) | 25 (≈ 29.7 µM) | 50 (≈ 59.4 µM) | 25 (≈ 29.7 µM) | 1.56 (≈ 1.85 µM) | 25 (≈ 29.7 µM) | 1.56 (≈ 1.85 µM) | 0.5 (≈ 0.594 µM) | 1 (≈ 1.19 µM) | 1 (≈ 1.19 µM) | ED50 ([1]; C203, Oral, mice, mg/kg × 2, doses given 1 and 4 hours postinfection, read-out: ED50): > 25 mg/kg; ED50 ([1]; C203, sc, Subcutaneous, mice, mg/kg × 2, doses given 1 and 4 hours postinfection, read-out: ED50): 5.37 mg/kg; MIC [15, 28]: > 50 µg/mL; MIC [20]: 8 µg/mL (≈ 9.5 µM); MIC [21]: 2 µg/mL (≈ 2.38 µM); MIC [22]: 1 µg/mL (≈ 1.19 µM); MIC [23]: 1 µg/mL (≈ 1.19 µM); MIC [24]: 8 µg/mL (≈ 9.5 µM); MIC ([25]; agar-dilution, read-out: MIC): > 128 µg/mL; MIC ([26]; agar-dilution, read-out: MIC): > 128 µg/mL; MIC [27]: 1 µg/mL (≈ 1.19 µM); MIC (Escherichia coli EC14; agar-dilution, read-out: MIC): > 128 µg/mL
2 | CCC1OC(=O)CC(O)C(C)C(OC2OC(C)C(O)C(N(C)C)C2OC(C)=O)C(CC=O)CC(C)C(=O)C=CC(C)=CC1COC1OC(C)C(OC(=O)CC(C)C)C(O)C1OC (stereo not shown) [Compound 25, 2'-O-Acetyl-4"-O-isovaleryl-lactenocin] | 0.5 (≈ 0.566 µM) | 2 (≈ 2.26 µM) | 0.39 (≈ 0.441 µM) | 25 (≈ 28.3 µM) | 3.12 (≈ 3.53 µM) | 6.25 (≈ 7.07 µM) | 25 (≈ 28.3 µM) | 50 (≈ 56.6 µM) | 25 (≈ 28.3 µM) | 25 (≈ 28.3 µM) | 50 (≈ 56.6 µM) | 25 (≈ 28.3 µM) | 25 (≈ 28.3 µM) | 25 (≈ 28.3 µM) | 1.56 (≈ 1.76 µM) | 25 (≈ 28.3 µM) | 1.56 (≈ 1.76 µM) | 2 (≈ 2.26 µM) | 2 (≈ 2.26 µM) | 2 (≈ 2.26 µM) | MIC [15, 28]: > 50 µg/mL; MIC [20]: 16 µg/mL (≈ 18.1 µM); MIC [21]: 2 µg/mL (≈ 2.26 µM); MIC [22]: 2 µg/mL (≈ 2.26 µM); MIC [23]: 2 µg/mL (≈ 2.26 µM); MIC [24]: 32 µg/mL (≈ 36.2 µM); MIC ([25]; agar-dilution, read-out: MIC): > 128 µg/mL; MIC ([26]; agar-dilution, read-out: MIC): > 128 µg/mL; MIC [27]: 2 µg/mL (≈ 2.26 µM); MIC (Escherichia coli EC14; agar-dilution, read-out: MIC): > 128 µg/mL
3 | CCC1OC(=O)CC(O)C(C)C(OC2OC(C)C(OC3CC(C)(O)C(O)C(C)O3)C(N(C)C)C2O)C(CC=O)CC(C)C(=O)C=CC(C)=CC1COC1OC(C)C(OC(=O)Cc2ccccc2)C(O)C1OC (stereo not shown) [Compound 10, 4'"-O-Phenylacetyl-macrocin] | 0.25 (≈ 0.245 µM) | 1 (≈ 0.98 µM) | 0.39 (≈ 0.382 µM) | > 50 | 1.56 (≈ 1.53 µM) | 1.56 (≈ 1.53 µM) | > 50 | 12.5 (≈ 12.3 µM) | 50 (≈ 49 µM) | 12.5 (≈ 12.3 µM) | > 50 | > 50 | > 50 | > 50 | 0.78 (≈ 0.765 µM) | 50 (≈ 49 µM) | 3.12 (≈ 3.06 µM) | 0.5 (≈ 0.49 µM) | 1 (≈ 0.98 µM) | 1 (≈ 0.98 µM) | ED50 ([1]; C203, po): 38.8 mg/kg; ED50 ([1]; C203, sc): 1.9 mg/kg; MIC [15]: > 50 µg/mL; MIC [20]: 16 µg/mL (≈ 15.7 µM); MIC [21]: 2 µg/mL (≈ 1.96 µM); MIC [22]: 1 µg/mL (≈ 0.98 µM); MIC [23]: 1 µg/mL (≈ 0.98 µM); MIC [24]: 32 µg/mL (≈ 31.4 µM); MIC [25]: > 128 µg/mL; MIC [26]: > 128 µg/mL; MIC [27]: 1 µg/mL (≈ 0.98 µM); MIC (Escherichia coli EC14): > 128 µg/mL
